Data reported in ChEMBL document CHEMBL3714731, “Heterocyclic compounds for the inhibition of pask” (2014).

What was measured:
[1] = molecular target: T1, PAS domain-containing serine/threonine-protein kinase (Homo sapiens, UniProt Q96RG2); test: Inhibition of N-terminal GST-tagged human recombinant PASK kinase domain (879 to 1323 residues) expressed in insect cells using MBP protein substrate incubated for 120 mins in presence of [33P]ATP by scintillation counting based radiochemical assay
[2] = molecular target: Casein kinase II subunit alpha' (Homo sapiens, UniProt P19784); test: Inhibition of GST-tagged full-length purified human CK2a2 using RRRDDDSDDD substrate incubated for 120 mins in presence of [33P]ATP by scintillation counting based biochemical assay
Sequence of Casein kinase II subunit alpha' (P19784 whole entry): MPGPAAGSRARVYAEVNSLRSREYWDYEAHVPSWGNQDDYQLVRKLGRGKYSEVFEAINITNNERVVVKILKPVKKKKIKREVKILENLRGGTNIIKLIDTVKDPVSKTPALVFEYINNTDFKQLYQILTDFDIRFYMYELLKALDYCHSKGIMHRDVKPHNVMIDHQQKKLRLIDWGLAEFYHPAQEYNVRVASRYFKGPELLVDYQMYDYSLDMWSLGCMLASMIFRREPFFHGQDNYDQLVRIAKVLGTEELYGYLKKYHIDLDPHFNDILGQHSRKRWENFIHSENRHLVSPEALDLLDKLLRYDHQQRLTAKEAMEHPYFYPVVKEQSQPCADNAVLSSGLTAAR

[3] = molecular target: Serine/threonine-protein kinase pim-1 (Homo sapiens, UniProt P11309); test: Inhibition of human full-length 6xHis-tagged PIM1 expressed in insect cells using S6K1Rsk2 peptide-2 substrate in presence of [33P]ATP incubated for 120 mins by scintillation counting based biochemical assay
Sequence of Serine/threonine-protein kinase pim-1 (P11309 whole entry, the tested form may be a part): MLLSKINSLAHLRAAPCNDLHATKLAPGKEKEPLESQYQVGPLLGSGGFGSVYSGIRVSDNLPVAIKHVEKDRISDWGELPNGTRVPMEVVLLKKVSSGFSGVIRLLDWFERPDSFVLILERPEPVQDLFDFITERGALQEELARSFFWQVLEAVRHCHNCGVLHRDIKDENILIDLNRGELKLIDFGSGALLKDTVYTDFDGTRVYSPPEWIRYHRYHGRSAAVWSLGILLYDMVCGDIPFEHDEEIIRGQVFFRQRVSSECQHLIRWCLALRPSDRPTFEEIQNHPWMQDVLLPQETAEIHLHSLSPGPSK

[4] = molecular target: T1, PAS domain-containing serine/threonine-protein kinase; test: Inhibition of human recombinant PASK using Ulight-peptide substrate incubated for 2 hrs by TR-FRET assay

T1 sequence (Q96RG2 whole entry, the tested form may be a part): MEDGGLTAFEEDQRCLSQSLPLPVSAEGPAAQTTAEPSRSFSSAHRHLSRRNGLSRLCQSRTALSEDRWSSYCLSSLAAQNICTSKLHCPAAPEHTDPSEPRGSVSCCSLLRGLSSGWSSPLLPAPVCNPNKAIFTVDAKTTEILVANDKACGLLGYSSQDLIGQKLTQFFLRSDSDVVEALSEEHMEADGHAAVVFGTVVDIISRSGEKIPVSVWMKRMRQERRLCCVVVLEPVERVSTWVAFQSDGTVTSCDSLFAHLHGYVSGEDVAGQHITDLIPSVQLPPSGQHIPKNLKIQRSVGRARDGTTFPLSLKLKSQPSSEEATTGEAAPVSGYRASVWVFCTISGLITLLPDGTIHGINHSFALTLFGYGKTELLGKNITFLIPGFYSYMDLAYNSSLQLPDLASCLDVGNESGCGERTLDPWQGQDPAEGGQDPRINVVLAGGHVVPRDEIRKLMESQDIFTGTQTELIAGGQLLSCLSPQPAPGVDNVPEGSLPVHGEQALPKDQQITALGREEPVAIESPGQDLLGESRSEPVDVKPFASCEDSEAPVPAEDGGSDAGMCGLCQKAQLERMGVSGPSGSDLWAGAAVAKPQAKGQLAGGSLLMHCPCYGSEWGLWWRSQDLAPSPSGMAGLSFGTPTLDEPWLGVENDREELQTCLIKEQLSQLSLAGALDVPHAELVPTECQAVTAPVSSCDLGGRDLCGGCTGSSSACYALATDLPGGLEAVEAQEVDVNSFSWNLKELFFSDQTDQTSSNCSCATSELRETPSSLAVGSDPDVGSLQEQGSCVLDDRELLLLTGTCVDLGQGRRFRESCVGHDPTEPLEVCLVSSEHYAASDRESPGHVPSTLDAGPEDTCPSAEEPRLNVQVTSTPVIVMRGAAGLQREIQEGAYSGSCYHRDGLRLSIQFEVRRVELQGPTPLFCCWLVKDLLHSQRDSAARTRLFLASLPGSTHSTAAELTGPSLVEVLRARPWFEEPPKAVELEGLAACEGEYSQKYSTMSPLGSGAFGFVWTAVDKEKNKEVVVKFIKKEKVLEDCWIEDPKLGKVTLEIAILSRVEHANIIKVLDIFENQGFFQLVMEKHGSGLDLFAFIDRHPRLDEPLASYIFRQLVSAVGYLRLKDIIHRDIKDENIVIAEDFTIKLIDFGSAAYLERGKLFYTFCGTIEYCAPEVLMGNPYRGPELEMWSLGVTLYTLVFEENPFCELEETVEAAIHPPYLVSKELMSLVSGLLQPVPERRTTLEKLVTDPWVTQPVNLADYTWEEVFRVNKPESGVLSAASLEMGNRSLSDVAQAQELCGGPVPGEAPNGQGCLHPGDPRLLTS

IC50 [1]	IC50 [2]	IC50 [3]	IC50 [4]	Compound
≤ 10 µM	≤ 10 µM	≤ 10 µM	–	COc1cc(-c2cc(=O)n3ncc(CC#N)c3[nH]2)ccc1Cl
≤ 10 µM	≤ 10 µM	≤ 10 µM	–	CCc1cnc(-c2cnn3c(=O)cc(-c4ccc5c(cnn5CC)c4)[nH]c23)o1
–	–	–	≤ 10 µM	Cc1coc(-c2cnn3c(=O)cc(-c4ccc5[nH]ncc5c4)[nH]c23)n1
